The term inhibition denotes the percentage by which the read-out fell short of the control.

Structures are written as SMILES. The source made the active and inactive calls. No cut-off for these calls is given here.

Series [1] has as its system RAW264. In words: (§1) Inhibition of RANKL-induced osteoclastogenesis in mouse RAW264 cells at 50 uM after 4 days by TRAP staining based assay relative to control. It counts as functional.
The nature of series [2]: as §1. The format is functional. As to conditions: RAW264.7, 96 h.
Series [3] relates to RAW264. In words: Inhibition of RANKL-induced osteoclastogenesis in mouse RAW264 cells after 4 days by TRAP staining based assay. The format is functional, cell-based.
The nature of series [4]: Cytotoxicity against mouse RAW264 cells at 50 uM. As to conditions: raw264, 50 µM. The format is cell-based.

Take `C[C@]12CCC[C@](C)(C(=O)O)[C@@H]1CC[C@@]1(C)c3cocc3CC[C@H]21`: the inhibition entry in the series on RAW264 [1] is “inactive”.

Turning to `C[C@]12CCC[C@](C)(C(=O)O)[C@@H]1CC[C@@]1(C)C3=C(CC[C@H]21)[C@@H]1C[C@@H](C(=O)O)[C@H]3O1`, the inhibition at 50 µM in series [2] turned out to be 31%.

Compound `C[C@]12CCC[C@](C)(C(=O)O)[C@@H]1CC[C@@]1(C)C3=C(CC[C@H]21)[C@H]1C[C@H](C(=O)O)[C@@H]3O1` returned an inhibition at 50 µM in series [2] of 47%.

Turning to `C[C@]12CCC[C@](C)(C(=O)O)[C@@H]1CC[C@@]1(C)C3=C(CC[C@H]21)[C@@H]1O[C@H]3C[C@@H]1C(=O)O`, in series [2], the inhibition at 50 µM turned out to be 70%. Also, in the series with RAW264 [3], the inhibition result was “Dose-dependent effect”. The Activity result in series [4] was “Non-Toxic”.

`C[C@]12CCC[C@](C)(C(=O)O)[C@@H]1CC[C@@]1(C)C3=C(CC[C@H]21)[C@H]1O[C@@H]3C[C@@H]1C(=O)O` gave an inhibition at 50 µM in series [2] of 28%.

Values taken from ChEMBL document CHEMBL4004791, “Ceylonins A-F, Spongian Diterpene Derivatives That Inhibit RANKL-Induced Formation of Multinuclear Osteoclasts, from the Marine Sponge Spongia ceylonensis” (J Nat Prod, 2017).
